Test results reported in ChEMBL document CHEMBL4311942, “Design of Trp-Rich Dodecapeptides with Broad-Spectrum Antimicrobial Potency and Membrane-Disruptive Mechanism” (J Med Chem, 2019).
Values after ≈ are worked out from the molar mass of the structure shown. Where a SMILES comes first, the peptide text is derived from it.

Key:
Staphylococcus aureus [1] = assay: Antibacterial activity against Staphylococcus aureus ATCC 25923 incubated for 18 to 24 hrs by broth microdilution method; assay type: functional
Staphylococcus aureus [2] = assay: Antibacterial activity against Staphylococcus aureus ATCC 29213 incubated for 18 to 24 hrs by broth microdilution method; assay type: functional
Salmonella typhimurium = assay: Antibacterial activity against Salmonella enterica serovar typhimurium C77-31 incubated for 18 to 24 hrs by broth microdilution method; assay type: functional, Salmonella enterica subsp. enterica serovar Typhimurium
Escherichia coli [3] = assay: Antibacterial activity against Escherichia coli UB1005 incubated for 18 to 24 hrs by broth microdilution method; assay type: functional
Escherichia coli [4] = assay: Antibacterial activity against Escherichia coli ATCC 25922 incubated for 18 to 24 hrs by broth microdilution method; assay type: functional
[5] = system: Staphylococcus epidermidis; assay: Antibacterial activity against Staphylococcus epidermidis ATCC 12228 incubated for 18 to 24 hrs by broth microdilution method; assay type: functional
Escherichia coli [6] = assay: Antibacterial activity against Escherichia coli 20411 clinical isolate incubated for 18 to 24 hrs by broth microdilution method; assay type: functional
Acinetobacter baumannii [7] = assay: Antibacterial activity against Acinetobacter baumannii AB1901 clinical isolate incubated for 18 to 24 hrs by broth microdilution method; assay type: functional
Acinetobacter baumannii [8] = assay: Antibacterial activity against Acinetobacter baumannii AB1902 clinical isolate incubated for 18 to 24 hrs by broth microdilution method; assay type: functional
Pseudomonas aeruginosa = assay: Antibacterial activity against Pseudomonas aeruginosa 25349 clinical isolate incubated for 18 to 24 hrs by broth microdilution method; assay type: functional
Staphylococcus aureus [9] = assay: Antibacterial activity against Staphylococcus aureus 11011 incubated for 18 to 24 hrs by broth microdilution method; assay type: functional
Erythrocyte = assay: Haemolytic activity in human erythrocytes assessed as lowest concentration causing 5% hemolysis after 1 hr; assay type: ADME, cell-based
[10] = Therapeutic index, ratio of MHC for human RBC to geometric mean of peptide MIC for Escherichia coli ATCC 25922; assay type: toxicity; conditions: pooled result: one value given for 6 cell lines, strains, targets or settings, read-out: TI
[11] = Cytotoxicity against mouse RAW264.7 cells assessed as cell survival at < 32 uM after 24 hrs by MTT assay; assay type: cell-based; conditions: read-out: Activity

MIC (Staphylococcus aureus [1]) [µM] | MIC (Staphylococcus aureus [2]) [µM] | MIC (Salmonella typhimurium) [µM] | MIC (Escherichia coli [3]) [µM] | MIC (Escherichia coli [4]) [µM] | MIC [5] [µM] | MIC (Escherichia coli [6]) [µM] | MIC (Acinetobacter baumannii [7]) [µM] | MIC (Acinetobacter baumannii [8]) [µM] | MIC (Pseudomonas aeruginosa) [µM] | MIC (Staphylococcus aureus [9]) [µM] | Structure (SMILES) | MHC (Erythrocyte) [µM] | selectivity ratio [10] | viability at 24 h [11] [%]
2 (≈ 3.7 µg/mL) | 2 (≈ 3.7 µg/mL) | 2 (≈ 3.7 µg/mL) | 4 (≈ 7.41 µg/mL) | 4 (≈ 7.41 µg/mL) | 2 (≈ 3.7 µg/mL) | 2 (≈ 3.7 µg/mL) | 2 (≈ 3.7 µg/mL) | 4 (≈ 7.41 µg/mL) | 8 (≈ 14.8 µg/mL) | 2 (≈ 3.7 µg/mL) | C[C@@H](O)[C@H](NC(=O)[C@H](CCCCN)NC(=O)[C@H](Cc1c[nH]c2ccccc12)NC(=O)[C@H](CCCNC(=N)N)NC(=O)[C@H](Cc1ccccc1)NC(=O)[C@H](CCCNC(=N)N)NC(=O)[C@@H](N)Cc1c[nH]c2ccccc12)C(=O)N[C@@H](CCCNC(=N)N)C(=O)N[C@@H](Cc1c[nH]c2ccccc12)C(=O)N[C@@H](CCCNC(=N)N)C(=O)N[C@@H](Cc1ccccc1)C(=O)N[C@@H](CCCCN)C(N)=O (H-WRFRWKTRWRFK-NH2) | > 128 | 102 | > 90
2 (≈ 3.51 µg/mL) | 1 (≈ 1.75 µg/mL) | 2 (≈ 3.51 µg/mL) | 2 (≈ 3.51 µg/mL) | 4 (≈ 7.02 µg/mL) | 2 (≈ 3.51 µg/mL) | 1 (≈ 1.75 µg/mL) | 2 (≈ 3.51 µg/mL) | 4 (≈ 7.02 µg/mL) | 4 (≈ 7.02 µg/mL) | 2 (≈ 3.51 µg/mL) | CC(C)[C@H](NC(=O)[C@H](CCCNC(=N)N)NC(=O)[C@H](Cc1c[nH]c2ccccc12)NC(=O)[C@H](CCCNC(=N)N)NC(=O)[C@@H](NC(=O)[C@H](CCCCN)NC(=O)[C@H](Cc1c[nH]c2ccccc12)NC(=O)[C@H](CCCNC(=N)N)NC(=O)[C@@H](NC(=O)[C@H](CCCNC(=N)N)NC(=O)[C@@H](N)Cc1c[nH]c2ccccc12)C(C)C)C(C)C)C(=O)N[C@@H](CCCCN)C(N)=O (H-WRVRWKVRWRVK-NH2) | > 128 | 128 | > 90
2 (≈ 3.62 µg/mL) | 1 (≈ 1.81 µg/mL) | 4 (≈ 7.24 µg/mL) | 2 (≈ 3.62 µg/mL) | 4 (≈ 7.24 µg/mL) | 2 (≈ 3.62 µg/mL) | 2 (≈ 3.62 µg/mL) | 2 (≈ 3.62 µg/mL) | 2 (≈ 3.62 µg/mL) | 4 (≈ 7.24 µg/mL) | 1 (≈ 1.81 µg/mL) | CC(C)[C@H](NC(=O)[C@H](CCCNC(=N)N)NC(=O)[C@H](Cc1c[nH]c2ccccc12)NC(=O)[C@H](CCCNC(=N)N)NC(=O)[C@@H](NC(=O)[C@H](CCCNC(=N)N)NC(=O)[C@H](Cc1c[nH]c2ccccc12)NC(=O)[C@H](CCCNC(=N)N)NC(=O)[C@@H](NC(=O)[C@H](CCCNC(=N)N)NC(=O)[C@@H](N)Cc1c[nH]c2ccccc12)C(C)C)C(C)C)C(=O)N[C@@H](CCCNC(=N)N)C(N)=O (H-WRVRWRVRWRVR-NH2) | > 128 | 114 | > 90
4 (≈ 7.02 µg/mL) | 2 (≈ 3.51 µg/mL) | 4 (≈ 7.02 µg/mL) | 2 (≈ 3.51 µg/mL) | 4 (≈ 7.02 µg/mL) | 4 (≈ 7.02 µg/mL) | 4 (≈ 7.02 µg/mL) | 8 (≈ 14 µg/mL) | 8 (≈ 14 µg/mL) | 32 (≈ 56.2 µg/mL) | 4 (≈ 7.02 µg/mL) | CC(C)[C@H](NC(=O)[C@H](CCCNC(=N)N)NC(=O)[C@H](Cc1c[nH]c2ccccc12)NC(=O)[C@H](CCCNC(=N)N)NC(=O)[C@@H](NC(=O)[C@H](CCCCN)NC(=O)[C@H](Cc1c[nH]c2ccccc12)NC(=O)[C@H](CCCNC(=N)N)NC(=O)[C@@H](NC(=O)[C@H](CCCNC(=N)N)NC(=O)[C@@H](N)Cc1c[nH]c2ccccc12)C(C)C)[C@@H](C)O)C(=O)N[C@@H](CCCCN)C(N)=O (H-WRVRWKTRWRVK-NH2) | > 128 | 80.8 | > 90
8 (≈ 14.5 µg/mL) | 4 (≈ 7.26 µg/mL) | 4 (≈ 7.26 µg/mL) | 4 (≈ 7.26 µg/mL) | 4 (≈ 7.26 µg/mL) | 8 (≈ 14.5 µg/mL) | 2 (≈ 3.63 µg/mL) | 32 (≈ 58.1 µg/mL) | 32 (≈ 58.1 µg/mL) | > 64 | 4 (≈ 7.26 µg/mL) | C[C@@H](O)[C@H](NC(=O)[C@H](CCCNC(=N)N)NC(=O)[C@H](Cc1c[nH]c2ccccc12)NC(=O)[C@H](CCCNC(=N)N)NC(=O)[C@@H](NC(=O)[C@H](CCCNC(=N)N)NC(=O)[C@H](Cc1c[nH]c2ccccc12)NC(=O)[C@H](CCCNC(=N)N)NC(=O)[C@@H](NC(=O)[C@H](CCCNC(=N)N)NC(=O)[C@@H](N)Cc1c[nH]c2ccccc12)[C@@H](C)O)[C@@H](C)O)C(=O)N[C@@H](CCCNC(=N)N)C(N)=O (H-WRTRWRTRWRTR-NH2) | > 128 | 50.8 | > 90
